As a reminder, the inhibition is the share of the control response that was lost under treatment. The term IC50 denotes the concentration needed to halve the response being measured. The low end stands for inhibition by little substance, the high end for a need for much substance. As usually defined, the Km is the concentration of substrate that gives half-maximal velocity.

Results on 18 molecules are retold here after ChEMBL document CHEMBL1146771, “Identification of purine inhibitors of phosphodiesterase 7 (PDE7)” (Bioorg Med Chem Lett, 2004).

Bounds are passed on as bounds.

For test [1], the species on record is Rattus norvegicus. The experiment in a line: Inhibition of Phosphodiesterase 7 at 1 uM.
Test [2] in a line: Inhibition of Phosphodiesterase 7.
Test [3] can be described thus: Inhibitory concentration ratio of PDE4 to that of PDE7.
Test [4] in a line: Inhibitory concentration ratio of PDE3 to that of PDE7.
A short description of test [5]: Inhibitory concentration ratio of PDE1 to that of PDE7.
The nature of test [6]: Inhibitory concentration ratio of PDE2 to that of PDE7.
Test [7] is described as follows: Inhibitory concentration ratio of PDE5 to that of PDE7.
For test [8], the species on record is Rattus norvegicus.
Test [9] addresses cGMP-specific 3',5'-cyclic phosphodiesterase (Homo sapiens, UniProt O76074). Nature of the test: Inhibitory concentration against phosphodiesterase 5 (PDE5) from human platelet.
The next test has as its target Phosphodiesterase 3 (Homo sapiens, UniProt Q14432+Q13370). The experiment in a line: Inhibitory concentration against phosphodiesterase 3 from human platelet.
A further test concerns the target Phosphodiesterase 1 (Bos taurus, UniProt Q01061+P14100). The experiment in a line: Inhibitory concentration against phosphodiesterase 1 from bovine, calmodulin. In kind it is protein assay.
Test [10] concerns the target T1, cGMP-dependent 3',5'-cyclic phosphodiesterase (Rattus norvegicus, UniProt Q01062).
T1 sequence (Q01062 whole entry): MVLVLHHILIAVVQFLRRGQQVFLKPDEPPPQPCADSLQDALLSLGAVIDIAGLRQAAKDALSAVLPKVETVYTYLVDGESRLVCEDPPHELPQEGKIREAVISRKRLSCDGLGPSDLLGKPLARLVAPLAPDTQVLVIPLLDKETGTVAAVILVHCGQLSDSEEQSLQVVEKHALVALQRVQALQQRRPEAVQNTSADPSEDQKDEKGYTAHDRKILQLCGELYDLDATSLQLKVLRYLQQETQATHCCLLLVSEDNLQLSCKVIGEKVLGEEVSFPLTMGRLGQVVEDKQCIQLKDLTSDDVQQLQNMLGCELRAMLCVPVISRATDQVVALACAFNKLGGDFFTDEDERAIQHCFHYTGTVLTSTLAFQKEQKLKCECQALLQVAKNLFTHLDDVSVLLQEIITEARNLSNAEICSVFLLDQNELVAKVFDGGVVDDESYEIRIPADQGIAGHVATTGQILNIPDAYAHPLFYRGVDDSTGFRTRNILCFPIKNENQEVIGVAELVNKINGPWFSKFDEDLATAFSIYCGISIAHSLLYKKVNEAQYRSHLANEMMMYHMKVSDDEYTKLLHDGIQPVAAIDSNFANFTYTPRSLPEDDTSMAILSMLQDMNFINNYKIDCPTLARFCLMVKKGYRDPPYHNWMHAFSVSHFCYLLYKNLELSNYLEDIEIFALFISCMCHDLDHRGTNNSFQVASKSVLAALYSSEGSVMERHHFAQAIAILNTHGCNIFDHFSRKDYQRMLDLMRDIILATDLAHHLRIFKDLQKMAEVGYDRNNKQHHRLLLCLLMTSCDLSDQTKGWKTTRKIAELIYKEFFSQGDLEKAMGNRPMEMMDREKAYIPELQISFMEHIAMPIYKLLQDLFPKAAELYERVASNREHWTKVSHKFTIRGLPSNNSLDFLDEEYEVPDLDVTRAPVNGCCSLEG
Nature of the test: Inhibitory concentration against phosphodiesterase 2 from rat kidney.

`CCn1cnc2nc(Nc3nc(C)cs3)nc(NCc3ccc(OC)c(OC)c3)c21` had an inhibition in the test listed under Rattus norvegicus [1] of 15%.

In test [2], `CCOC(=O)c1sc(Nc2nc(NCc3ccc(S(N)(=O)=O)cc3)c3c(ncn3CC)n2)nc1C` displayed an IC50 of 11 nM. That is a double-digit nanomolar value.

`CCn1cnc2nc(Nc3nc(C)c(C(=O)Nc4ccccc4)s3)nc(NCc3ccc(OC)c(OC)c3)c21`: the Ratio in [3] worked out at 7; in test [4], 12; in test [5], 12; in [6], 11; in test [7] it was 1.1. In addition, the IC50 in test [2] was 820 nM.

On to `CCOC(=O)c1sc(Nc2nc(N3CCc4cc(OC)c(OC)cc4C3)c3c(ncn3CC)n2)nc1C`, for which the Ratio in test [3] is 1.3; in test [4], 17; in test [5], 2.8; in test [6], 3.6; in [7], 4.6. Besides, in test [2], half-maximal inhibition (IC50) required 150 nM.

For the molecule `Nc1ncnc2c1ncn2[C@@H]1O[C@@H]2COP(=O)(O)O[C@H]2[C@H]1O`, the Km in the test filed under Rattus norvegicus [8] turned out to be 0.2 µM.

For `CCOC(=O)c1sc(Nc2nc(NCc3ccc(S(C)(=O)=O)cc3)c3c(ncn3CC)n2)nc1C`, the Ratio stood at 22 in test [3]; 130 in [4]; 18 in [5]; 25 in [6]; 0.9 in test [7]. Besides, in [2], inhibition was half-maximal at 55 nM (IC50).

As to `CCOC(=O)c1sc(Nc2nc(NCc3ccc(S(N)(=O)=O)cc3)c3ncn(CC)c3n2)nc1C`, the Ratio in test [3] is 16; in test [4], > 5000; in [5] it was 200; in test [6], 45; in [7], 13. Moreover, half-maximal inhibition in [2] (IC50) was put at 10 nM.

`CCOC(=O)c1sc(Nc2nc(NCc3ccc4c(c3)OCO4)c3c(ncn3CC)n2)nc1C`: the Ratio is 11 in test [4], 19 in test [5] and 0.38 in test [7]. This molecule also registered an IC50 in test [2] of 110 nM.

Turning to `CCOC(=O)c1sc(Nc2nc(NCc3cc(OC)c(OC)c(OC)c3)c3c(ncn3CC)n2)nc1C`, the Ratio in test [3] was 24; in test [4], 33; in test [5] it was 1.7; in test [6] it was 14; in [7], 15. The IC50 in test [2] is 100 nM.

With `CCOC(=O)c1sc(Nc2nc(NS(=O)(=O)c3ccc(S(C)(=O)=O)cc3)c3ncn(CC)c3n2)nc1C`, the Ratio in [3] worked out at 0.046; in test [4], 0.11; in test [7], 0.55. The molecule also yielded an IC50 in test [2] of 1600 nM.

Take `COc1cc(-c2ccc(=O)[nH]n2)ccc1OC(F)F` [ZARDAVERINE]: the IC50 in test [9] is > 10000 nM; on Phosphodiesterase 3, 110 nM; in test [2], > 10000 nM; against Phosphodiesterase 1 it was > 10000 nM; in [10], > 10000 nM.

Consider `CCOC(=O)c1sc(Nc2nc(NCc3ccc(OCc4ccccc4)c(OC)c3)c3c(ncn3CC)n2)nc1C`, for which the Ratio was 3.8 in test [3]; 2.5 in test [4]; 1.3 in test [5]; 2.3 in test [6]; 2.9 in [7]. The molecule further showed an IC50 in test [2] of 940 nM.

As for `COc1ccc(C2CNC(=O)C2)cc1OC1CCCC1` (stereo not given) [ROLIPRAM], the IC50 (against Phosphodiesterase 3; in test [2]; against Phosphodiesterase 1; in test [10]) was > 10000 nM in each case.

As to `CCOC(=O)c1sc(Nc2nc(NCc3ccc(OC)c(OC)c3)c3c(ncn3CC)n2)nc1C`, the IC50 in [9] came out at 270 nM; against Phosphodiesterase 3 it was 580 nM; in test [2], 150 nM; against Phosphodiesterase 1, 220 nM; in test [10], 1700 nM.

Regarding `COc1nc2c([nH]1)c(=O)n(C)c(=O)n2CC(C)C`, the IC50 was 3020 nM in test [9]; > 10000 nM on Phosphodiesterase 3; > 10000 nM in test [2]; 1800 nM at Phosphodiesterase 1; > 10000 nM in test [10].

As for `CCOC(=O)c1sc(Nc2nc(OCc3ccc(S(C)(=O)=O)cc3)c3ncn(CC)c3n2)nc1C`, the Ratio in test [4] was found to be 21; in test [7] it was 4.1. Further, the half-maximal inhibitory concentration (IC50) in test [2] came to 370 nM.

As to `CCCc1nn(C)c2c(=O)[nH]c(-c3cc(S(=O)(=O)N4CCN(C)CC4)ccc3OCC)nc12`, the half-maximal inhibitory concentration (IC50) in [2] and in test [10] was > 10000 nM throughout.

As to `CN(C(=O)CCCOc1ccc2[nH]c(=O)ccc2c1)C1CCCCC1` [CILOSTAMIDE], the IC50 was 7150 nM in test [9], > 10000 nM in test [2], > 10000 nM against Phosphodiesterase 1 and > 10000 nM in [10].
